US20080250710A1, “Low Light Cultivation Method and Plant Growth Promoting Agent” (priority 2005, published 2008)

Columns and labels:
[1] = tested on: morning glory (Pharbitis nil var. Violet) seedlings; assay: Low light cultivation experiment: number of days until lodging of morning glory young plants; assay type: in vivo; conditions: for Average value (days) of the numbers of days until lodging: 250 mL per pot once every four days, 200 lux, 23° C.; for effectiveness to low light cultivation (days until lodging versus control test solution): verdict in words
Method: As a plant, morning glory (Pharbitis nil var. Violet) seedlings (day 7 after germination) were used. Experiments were conducted in an incubator (low temperature of 23° C.) in daily cycles where a light period (200 lux) is 14 hours and a dark period is 10 hours in a day. Morning glory seeds (purchased from Marutane Co., Ltd., Kyoto) were sown in black plastic pots (commercially available No. 105 size: diameter 105 cm, height 90 cm). Vermiculite was used as culture medium (the wet weight of vermiculite in a pot was 350 g).
250 mL of a test solution was given to each pot once every four days. Test data was taken from 10 morning glory seedlings (young plants) grown per pot. After start of the test, the number of seedlings that lodged was counted every day. A lodging criterion is that the hypocotyl (a rachis under a cotyledon) of a young plant lodges and the cotyledon contacts culture medium, or the whole cotyledon died. Lodged young plants were removed each time. Note that the effect was evaluated using the average value of the numbers of days until lodging. The average value was calculated as follows. For example, when three plants lodged on day 9, four plants lodged on day 10, and three plants lodged on day 11, then the average value is 10.0 (=(9×3+10×4+11×3)/10).
Eight organic acids (aminolevulinic acid, citric acid, malic acid, succinic acid, tartaric acid, acetic acid, oxalic acid, and lactic acid) were prepared. Each organic acid was dissolved in a 500-fold dilution of a liquid fertilizer (VIGOR LIFE V) (a solution in which VIGOR LIFE V was diluted 500-fold with distilled water). Thereafter, the solution was adjusted to pH 5.0 with potassium hydroxide. Note that the organic acid concentration of each test solution was 5 mM.
A 500-fold dilution of VIGOR LIFE V was used as a control test solution.
The eight test solutions and the control test solution were used to conduct the low light cultivation experiment. Note that the upper row of Table 1 indicates the organic acids contained in the test solutions (the control test solution contained no organic acid). Also, the lower row of Table 1 indicates the average values (days) of the numbers of days until lodging of the morning glory young plants.
Six sugars (sucrose, glucose, fructose, trehalose, palatinose, and xylose) were prepared. Each sugar was dissolved in a 500-fold dilution of a liquid fertilizer (VIGOR LIFE V) (a solution in which VIGOR LIFE V was diluted 500-fold with distilled water). Note that the sugar concentration of each test solution was 3%.
Also, a 500-fold dilution of VIGOR LIFE V was used as a control test solution. […]
Note that the upper row of Table 2 indicates the sugars contained in the test solutions (the control test solution contained no sugar). Also, the lower row of Table 2 indicates the average values (days) of the numbers of days until lodging of the morning glory young plants.

[2] = tested on: houseplant weeping fig (Ficus benzyamina); assay: Low light cultivation of weeping fig: leaf survival ratio; assay type: in vivo; conditions: after four weeks, verdict in words
Method: The inorganic solution was used as a control reagent. (Reagent 1: the inorganic solution in which aminolevulinic acid is dissolved, Reagent 2: the inorganic solution in which citric acid is dissolved, and Reagent 3: the inorganic solution in which citric acid and sucrose are dissolved).
Note that, in respective reagents, the citric acid concentration was 5 mM, the sucrose concentration was 3%, and the aminolevulinic acid concentration was 100 ppm. The reagents containing citric acid (Reagent 2 and Reagent 3) were adjusted to pH 5.0 with potassium hydroxide.
Low light cultivation was conducted using the reagents and a houseplant weeping fig, with two methods below.
Regular cultivation: four commercially available weeping fig plants in No. 4-sized pots were prepared. The four reagents (Reagents 1 to 3 and the control reagent) were given to the respective plants in an amount of 50 mL once (Monday) every week. Watering was performed in an amount of 50 mL twice (Wednesday and Friday) every week. […]
The effect of each reagent was evaluated by counting the number of leaves for each pot and calculating the survival ratio (%) of leaves every week. Note that the leaf survival ratio (%) was calculated as a “survival ratio (%)=the number of counted weeping fig leaves/the number of weeping fig leaves before low light cultivation (initial value)×100”.

[3] = organic acid 5 mM in 500-fold dilution of VIGOR LIFE V, pH 5.0
[4] = sugar 3% in 500-fold dilution of VIGOR LIFE V

Structure (SMILES) | Average value (days) of the numbers of days until lodging [1, 3] [days] | Average value (days) of the numbers of days until lodging [1, 4] [days] | also measured
O=C(O)C(O)C(O)C(=O)O (centres unmarked) [Tartaric acid, tartaric acid] | 4.9 | – | –
O=C(O)CC(O)(CC(=O)O)C(=O)O [Citric acid, citric acid] | 12.9 | – | effectiveness to low light cultivation (days until lodging versus control test solution) ([1]; organic acid 5 mM, pH 5.0): effective; effectiveness to low light cultivation (leaf survival ratio versus control reagent) [2]: effective
OC[C@H]1O[C@@](CO)(O[C@H]2O[C@H](CO)[C@@H](O)[C@H](O)[C@H]2O)[C@@H](O)[C@@H]1O [Sucrose, sucrose] | – | 25.9 | effectiveness to low light cultivation (days until lodging versus control test solution) ([1]; sugar 3%): particularly effective
O=C[C@H](O)[C@@H](O)[C@H](O)CO [Xylose, xylose] | – | 10.1 | –
O=C(O)C(=O)O [Oxalic acid, oxalic acid] | 3.7 | – | –
OC[C@H]1O[C@H](OC[C@H]2OC(O)(CO)[C@@H](O)[C@@H]2O)[C@H](O)[C@@H](O)[C@@H]1O (some centres unmarked) [Palatinose, palatinose] | – | 9.6 | –
O=C(O)CCC(=O)O [Succinic acid, succinic acid] | 10.4 | – | effectiveness to low light cultivation (days until lodging versus control test solution) ([1]; organic acid 5 mM, pH 5.0): effective
CC(O)C(=O)O (centres unmarked) [Lactic acid, lactic acid] | 6.1 | – | –
O=C(CO)[C@@H](O)[C@H](O)[C@H](O)CO [Fructose, fructose] | – | 22.1 | effectiveness to low light cultivation (days until lodging versus control test solution) ([1]; sugar 3%): particularly effective
OC[C@H]1O[C@H](O[C@H]2O[C@H](CO)[C@@H](O)[C@H](O)[C@H]2O)[C@H](O)[C@@H](O)[C@@H]1O [Trehalose, trehalose] | – | 21.9 | effectiveness to low light cultivation (days until lodging versus control test solution) ([1]; sugar 3%): particularly effective
NCC(=O)CCC(=O)O [Aminolevulinic acid, aminolevulinic acid, reference compound] | 2.5 | – | –
O=C(O)CC(O)C(=O)O (centres unmarked) [Malic acid, malic acid] | 11.1 | – | effectiveness to low light cultivation (days until lodging versus control test solution) ([1]; organic acid 5 mM, pH 5.0): effective
CC(=O)O [Acetic acid, acetic acid] | 3.9 | – | –
